Test results published in patent US9254274B2, “Method of treating Tourette'S disorder with GABA-aminotransferase inactivators” (CATALYST PHARMACEUTICAL PARTNERS, priority 2012, dated 2016).
“Also recorded” adds a separate entry of the source. Like-named read-outs stand apart in the source and are kept apart here.

Columns and labels:
[1] = tested on: patient diagnosed with Tourettes's Disorder (TD); assay: Clinical observations: single patient with Tourette's Disorder treated with vigabatrin; assay type: in vivo, human
From the text: The following instruments will be used to assess diagnosis and symptom severity at baseline: • a) SCID-CT. A clinician administered, semi-structured diagnostic interview specifically developed for use in clinical trials with adults • b) Yale Global Tic Severity Scale (Y-GTSS) (Leckman et al, 1989). The primary outcome measure for tic assessment is this investigator administered Global Severity score (sum of Total Tic score and TD Impairment score) on the Y-GTSS. It includes measures of tic frequency and severity and is widely used in drug efficacy trials involving TD. • c) Yale-Brown Obsessive Compulsive Scale (Y-BOCS) (Goodman et al, 1989). The Y-BOCS is a primary outcome measure of OCD symptoms and is rated by a study investigator. • d) Clinical Global Impression for Tics (Tics-CGI) (Leckman et al, 1988), for ADHD (ADHD-CGI), and for OCD (OCD-CGI) (Guy et al, 1976). Rated by the investigator. Global Improvement (1=very much improved, to 7=very much worse) scales. At intake, only the severity can be rated. In subsequent assessments, both severity and improvement will be rated. A CGI improvement of 1 (very much) or 2 (much) improved is considered to be an acceptable response to acute treatment as is a clinical severity rating of ≦3. • e) DSM-IV-TR Global Assessment of Functioning Scale (GAF) (APA DSM-IV-TR, 2000). The investigator-rated GAF ranges from 1-100, with scores over 70 indicating normal adjustment, and below 60, clinically significant impairment. • f) Hamilton Depression Scale. A clinician-rated scale used as a screening and diagnostic tool and a measure of severity of […] in adults, which has been widely used in clinical trials of young adults with MDD. • g) Hamilton Anxiety Scale. A clinician-rated scale used as a screening and diagnostic tool and a measure of severity of […] in adults, which has been widely used in clinical trials of young adults with MDD. • h) Conners Adult ADHD Rating Scale (CAARS:SL) Systematic self-report of ADHD symptoms in adults. • i) Adverse Events Form (SMURF) is completed at every visit to document all adverse events that occur during the study. • j) Demographics: Demographics and family history information are collected systematically during the Screening/Baseline Phase. • k) Vital signs, Weight and Height (pulse, blood pressure, weight, and height) will be assessed at every visit. • l) Abnormal Involuntary Movement Scale (AIMS) An investigator rated scale of abnormal involuntary movements including tardive dyskinesia. • m) Opthalmological evaluation including visual fields testing Visit 2 (Treatment Week 0):
A single patient diagnosed with Tourettes's Disorder (TD) was treated with vigabatrin for a period of about ten months. Subject is a person with a longstanding history of severe TD. Their course was characterized by typical attenuation of symptoms in late adolescence/early adulthood with an unusual, but not rare, acceleration of symptoms to lifetime peak severity in the last several years. This exacerbation occurred in temporal association with several significant life stressors. Marking the severity of their TD course was a history of fractured rib secondary to a truncal tic, inability to take public transportation, and inability to find steady work in their profession. […] They were on tetrabenazine at the time of referral to the study, but their response to this medication was limited by depressed mood symptoms and moderate fatigue.
Baseline Yale Global Tic Severity Score (YGTSS) score indicated a total motor score of 22, and a total vocal score of 17, for a total tic score (TTS) of 39 and a tic-related impairment score of 40; global severity was 79. Global Assessment of Functioning (GAF) score at baseline was 50.

brain GABA levels = conditions: human, single dose; cited from earlier work
[2] = biological target: neuronal GABA transporter (Mus musculus, UniProt P31648); conditions: Ludwig et al 1999; cited from earlier work
[3] = biological target: γ-aminobutyric acid aminotransferase (GABA-AT) (Sus scrofa, UniProt P80147); conditions: cited from earlier work
Sequence of γ-aminobutyric acid aminotransferase (GABA-AT) (P80147 29-500): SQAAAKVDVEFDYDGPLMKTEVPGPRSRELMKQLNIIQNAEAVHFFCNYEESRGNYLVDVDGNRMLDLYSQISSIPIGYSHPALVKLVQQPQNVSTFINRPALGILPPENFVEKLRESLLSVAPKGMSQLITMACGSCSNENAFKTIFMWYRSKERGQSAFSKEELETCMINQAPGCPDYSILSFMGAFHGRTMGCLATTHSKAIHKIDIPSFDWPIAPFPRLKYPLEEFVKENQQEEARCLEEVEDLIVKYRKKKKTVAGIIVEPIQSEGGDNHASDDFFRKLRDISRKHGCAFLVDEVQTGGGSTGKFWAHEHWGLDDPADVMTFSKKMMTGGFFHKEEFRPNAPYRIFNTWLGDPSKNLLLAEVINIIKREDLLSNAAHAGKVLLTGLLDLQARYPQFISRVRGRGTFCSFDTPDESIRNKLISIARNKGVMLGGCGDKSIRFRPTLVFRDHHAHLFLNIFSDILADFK

SMILES: C=CC(N)CCC(=O)O (stereo not drawn) [vigabatrin, γ-vinyl GABA]
- tic severity, overall clinical outcome [1]: clinically significant and meaningful improvement in their tic severity
- YGTSS total tic score (TTS) ([1]; GVG 2 grams, week 2, baseline TTS 39): 31
- YGTSS total tic score (TTS) ([1]; GVG 3 grams, week 3, baseline TTS 39): 27
- YGTSS total tic score (TTS) ([1]; GVG 3 grams, week 4, baseline TTS 39): 24
- YGTSS total tic score (TTS) ([1]; GVG 3 grams, week 5, baseline TTS 39): 21
- YGTSS total tic score (TTS) ([1]; GVG 3 grams, week 7, baseline TTS 39): 24
- adverse effect ([1]; GVG up to 3 grams, listed as GVG): minimal: tiredness and fatigue starting at 2 grams, which gradually attenuated; also recorded: mild and non-limiting adverse effect of fatigue
- eye exam ([1]; at 7 weeks, overall, listed as GVG): normal, and showed no change from baseline; also recorded: unchanged and within normal limits
- YGTSS total tic score (TTS) ([1]; week 1, dose figure not printed ('gram'), baseline TTS 39): 29
- Global Assessment of Functioning (GAF) score ([1]; week 7, baseline GAF 50): 65
- brain GABA levels after administration (brain GABA levels): remain substantially elevated for several days
- inhibition of GABA uptake [2]: inhibits GABA uptake

SMILES: N[C@@H]1C=C[C@H](C(=O)O)C1 [compound 1, (1R,4S)-4-amino-cyclopent-2-ene-1-carboxylic acid]
- specificity constant as GABA-AT substrate relative to GABA [3]: almost five times greater than that of GABA

SMILES: C=C1C[C@H](C(=O)O)C[C@@H]1N [Compound 2, (1S,3S)-3-amino-4-methylenyl-1-cyclopentanoic acid]
- GABA-AT inactivation ([3]; 2-mercaptoethanol added to the incubation mixture): no inactivation occurred
- GABA-AT inactivation ([3]; without 2-mercaptoethanol): inactivation of GABA-AT was observed
